Read-outs that look alike come from different tables or passages of the source.
Assays:
[1] = Acute gastral ulcerogenity; set-up: species or system male Sprague-Dawley rats; conditions: rat, in vivo, po
Experimental: The investigation took place in each case on 10 male Sprague-Dawley rats in which the gastric mucous membrane had been sensitized by hunger stress. The body weight of the animals was between 200 and 300 g. While allowing free access to the drinking water, the feed was withdrawn 48 hours before administration of the test preparations until sacrifice of the animals. The rats were sacrificed 24 hours after oral administration of the substance, and the stomachs were removed, cleaned under running water and inspected for mucous membrane lesions. All macroscopically visible lesions were regarded as ulcers. The number of animals having ulcers was determined for each dose, and the UD50 values, i.e. the doses at which lesions were caused in 50% of the animals, were calculated from this number by the method of Litchfield and Wilcoxon (J. Pharmacol. Exp. Ther. 96 (1949) p. 99).

Adjuvant arthritis = Adjuvant arthritis (paw volume increase); format: in vivo, male rats of a Wistar-Lewis strain; conditions: for Adjuvant arthritis (% inhibition at 50 mg/kg p.o.): rat, 50 mg/kg p.o. once daily, day 1 to day 5, reduction in increase in paw volume vs control; for ED50: Rattus norvegicus, po, read-out: ED50 in adjuvant arthritis
Experimental: The investigations were carried out by the method of Pearson (Arthrit. Rheum. 2 (1959) p. 44). The experimental animals used were male rats of a Wistar-Lewis strain having a body weight between 130 and 200 g. The compounds to be tested were administered orally (p.o.) once daily from day 1 to day 5 of the experiment in doses of 50 mg per kg of body weight. The animals of a control group received only the vehicle. Each preparation and control group comprised 8 animals. The criterion used to determine an action was the percentage reduction in the increase in paw volume compared to that of the untreated control group.

in vivo = conditions: mouse, ip; for LD50 at 168 h: read-out: Acute toxicity LD50
Experimental: The LD50 values were determined by a standard method from the mortality occurring within 7 days in NMRI (Naval Medical Research Institute) mice (6 animals per dose) after a single intraperitoneal (i.p.) administration.

[2] = tested on: Arthritis induced by type II collagen; assay: Arthritis induced by type II collagen (paw volume); format: in vivo, male Wistar rats; conditions: for inhibition of the increase in paw volume, collagen arthritis: oral once daily, 20-day treatment, naproxen at the same dosage
Experimental: (§1) In this experiment, arthritis was induced in male Wistar rats using type II collagen, which was obtained by standard methods of Miller and Rhodes (Meth. Enzymol. 82 (1982) p. 33) from the nasal septum of the calf and, mixed with Freund's incomplete adjuvant, was injected intradermally into the animals. This immunization process was repeated 7 days later. 20 days after the initial immunization, the affected rats were divided into groups each comprising 7 animals, which received the particular test substance or the pure vehicle (control group) orally once daily in the subsequent 20-day treatment phase. On day 41 of the experiment, i.e. one day after the final administration of substance, the increase in volume of both rear paws was determined.

[3] = tested on: Adriamycin-induced inflammation; assay: Adriamycin-induced inflammation; format: in vivo, male Sprague-Dawley rats; conditions: for protective effect against tissue destruction induced by Adriamycin: oral; for Increase in paw volume: 72 hours, control 430; for Protective action in %: * significance p < 0.05
Description: According to current opinion, aggressive oxygen radicals, which are formed to excess during the chronic inflammation process and, as highly toxic inflammation mediators themselves, perpetually maintain the connective tissue destruction which proceeds via an irreversible lipid peroxidation of the cell membranes, are permanently involved in the progressive course, caused by a multitude of factors, of rheumatoid arthritis and other inflammatory disorders. As a result, antioxidatively active pharmaceuticals having the ability to deactivate these extremely cytotoxic oxygen radicals should permit specific engagement in the chronic course of the inflammation. A suitable animal model for this type of tissue destruction caused by oxygen radicals is Adriamycin (doxorubicin) induced inflammation in rats. The investigations were carried out by the method of D. M. Siegel et al. (Inflammation 4 (1980) p. 233) on male Sprague-Dawley rats having a body weight between 200 and 230 g in groups of 7 animals each, which received 0.1 mg of Adriamycin, dissolved in 0.1 ml of a 0.9% strength sodium chloride solution, by subcutaneous injection into the left rear paw. The increase in paw volume was determined by plethysmographic measurement 72 hours thereafter as a measure of the degree of inflammation. The test preparations were administered orally in 1% strength aqueous carboxymethylcellulose suspension once daily on 4 successive days, starting with the day of Adriamycin injection.

lymphocytes [4] = assay: Stimulation of suppressed immune response of lymphocytes towards mitogens in adjuvant arthritis; format: in vivo, rat; conditions: oral, Example 1 at 3.15 and 6.3 mg/kg, naproxen in doses up to 25 mg/kg
lymphocytes [5] = assay: Immune activity of spleen lymphocytes towards mitogens in collagen arthritis; format: in vivo, male Wistar rats; conditions: Example 1: 12 mg/kg p.o.
Experimental: as §1
The immune status of lymphocytes is also disturbed sensitively in this model of collagen arthritis.

Arthus reaction = assay: Active Arthus reaction; format: in vivo, female and male Sprague-Dawley rats; conditions: oral
Experimental: The experimental animals used were female and male Sprague-Dawley rats having a body weight between 80 and 100 g; they were injected subcutaneously into the tail root with 0.5 ml of an emulsion of pertussis vaccine and ovalbumin in paraffin oil. After two weeks, the rats were divided into groups of 8 animals each. The respective test substance or the pure vehicle (positive control) were administered orally 24 hours and one hour before induction of the Arthus reaction by injecting 0.1 ml of a 0.4% strength ovalbumin solution into the right rear paw. Sodium chloride solution was injected into the left paw. A group of non-sensitized animals (negative control) was likewise treated with ovalbumin in order to be able to exclude non-specific reactions to the protein. The measurement parameter used for the action of the preparation was the inhibition of the increase in paw volume compared to that of a sensitized, but untreated control group (positive control) 4 hours after ovalbumin provocation, when the swelling reaches its maximum.

[6] = tested on: microsomal lipid peroxidation; assay: In-vitro inhibition of lipid peroxidation, microsomes (thiobarbituric acid test); format: biochemical; conditions: microsomes from the rat liver
Description: (§2) Further convincing evidence of the pronounced protective action of the compounds according to the invention against aggressive oxygen radicals is provided by the thiobarbituric acid test of A. Ottolenghi (Arch. Biochem. Biophys. 79 (1959) pp. 355-363). Using this in-vitro method, the affect on microsomal and mitochondrial lipid peroxidation by antioxidatively active preparations can be determined from the malonodialdehyde produced on oxidative degredation of membrane-bound, polyunsaturated fatty acids.
(§3) Here too, the compounds of the formula I exerted a strong inhibitory action.

[7] = tested on: mitochondrial lipid peroxidation; assay: In-vitro inhibition of lipid peroxidation, mitochondria (thiobarbituric acid test); format: biochemical; conditions: mitochondria from the rat liver
Description: as §2, §3

5-lipoxygenase = assay: Inhibition of 5-lipoxygenase in isolated polymorphonuclear granulocytes; format: cell-based, human; conditions: concentration range between 10^-5 and 10^-6 mol/l, pre-incubation 15 minutes
Experimental: The inhibitory action of the compounds according to the invention on 5-lipoxygenase-catalysed degredation of arachidonic acid was investigated,as usual, in in-vitro experiments on isolated polymorphonuclear human granulocytes. To this purpose, cells stimulated by calcium ionophor A 23 187 (Calbiochem GmbH, Frankfurt/Main, FRG, Biochemical and Immunochemical Catalog 1985, p. 284) were incubated with ^14 C-labeled arachidonic acid, and the major radioactive degredation products of arachidonic acid, 5-hydroxyeicosatetraenoic acid (5-HETE) and leukotriene […] (LTB4), which has a particularly strong proinflammatory action, formed after 15 minutes at 37° C. by biotransformation were determined quantitatively with the aid of a radio monitor after separation by high-pressure liquid chromatography (HPLC).

[8] = NMRI mice, single i.p. administration, mortality within 7 days

| Structure (SMILES) | TD50 at 24 h [1] | Adjuvant arthritis (% inhibition at 50 mg/kg p.o.) (Adjuvant arthritis) | LD50 at 168 h (in vivo; [8]) | LD50 at 168 h (in vivo) | inhibition of the increase in paw volume, collagen arthritis [2] | protective effect against tissue destruction induced by Adriamycin [3] | ED50 (Adjuvant arthritis) | normalization of the immune reactivity of lymphocytes towards mitogens (lymphocytes [4]) | effect on immune function of lymphocytes in collagen arthritis (lymphocytes [5]) | also measured |
| --- | --- | --- | --- | --- | --- | --- | --- | --- | --- | --- |
| CC(C)(C)c1cc(-c2csc3nc(=O)c(CO)nn23)cc(C(C)(C)C)c1O [Example 3, 3-(3,5-Di-tert.butyl-4-hydroxyphenyl)-6-hydroxymethyl-7H-thiazolo[3,2-b][1,2,4]triazin-7-one] | > 200 mg/kg | 41% | > 1200 mg/kg |  |  |  |  |  |  |  |
| Cc1cc(-c2csc3nc(=O)cnn23)cc(C(C)(C)C)c1O [Example 2, 3-(3-Tert.butyl-5-methyl-4-hydroxyphenyl)-7H-thiazolo[3,2-b][1,2,4]triazin-7-one] | > 400 mg/kg | 41% | > 1200 mg/kg |  |  |  |  |  |  |  |
| CCCc1nn2c(-c3cc(C(C)(C)C)c(O)c(C(C)(C)C)c3)csc2nc1=O [Example 9] | > 200 mg/kg | 45% |  | > 1200 mg/kg |  |  |  |  |  |  |
| COc1ccc2cc(C(C)C(=O)O)ccc2c1 (stereo not shown) [Naproxen, 2-(6-methoxy-2-naphthyl)-propionic acid, reference compound] |  | 55% |  |  | only non-significant inhibition values | ineffective | 17.5 mg/kg | ineffective | no effect | effect on Arthus reaction (Arthus reaction): ineffective |
| Cc1nn2c(-c3cc(C(C)(C)C)c(O)c(C(C)(C)C)c3)csc2nc1=O [Example 6] | > 200 mg/kg | 50% |  | > 1200 mg/kg |  |  |  |  |  |  |
| CC(C)(C)c1cc(-c2csc3nc(=O)cnn23)cc(C(C)(C)C)c1O [Example 1, 3-(3,5-Di-tert.butyl-4-hydroxyphenyl)-7H-thiazolo[3,2-b][1,2,4]triazin-7-one] | > 400 mg/kg | 67% | > 1200 mg/kg |  | dose-dependent inhibition of the increase in paw volume | strong, dose-dependent protective effect | 10.9 mg/kg | substantial normalization of the immune reactivity | completely normalized the immune function of both T and B lymphocytes | IC50 [6]: 600 nM; minimal effective dose ([2]; Rattus norvegicus, po, collagen arthritis, p.o., read-out: dose from which inhibition of the increase in paw volume was statistically significant): ≥ 25 mg/kg; IC50 [7]: 3000 nM; Increase in paw volume ([3]; 20 mg/kg p.o.): 220 µL; Protective action in % ([3]; 20 mg/kg p.o.): 49%; Increase in paw volume ([3]; 40 mg/kg p.o.): 200 µL; Protective action in % ([3]; 40 mg/kg p.o.): 54%; Increase in paw volume ([3]; 80 mg/kg p.o.): 10 µL; Protective action in % ([3]; 80 mg/kg p.o.): 98%; selectivity ratio [1]: > 36.7; inhibition of formation of 5-HETE (5-lipoxygenase): significantly inhibited; inhibition of formation of LTB4 (5-lipoxygenase): significantly inhibited; selectivity ratio (in vivo; LD50 (mice i.p.) / ED50 (adjuvant arthritis), read-out: therapeutic range, quotient LD50/ED50): > 110 |

Source: US4908364A, “Substituted 3-phenyl-7H-thiazol[3,2-b][1,2,4]-triazin-7-ones” (Hoechst Aktiengesellschaft, priority 1987, dated 1990)
